Laboratory results from patent US20130225611A1, “Compositions and Methods for Reducing Cancer Cell Proliferation and Modulating Importin-Beta Function” (THE REGENTS OF THE UNIVERSITY OF CALIFORNIA, priority 2011, published 2013).
pIC50: −log10 of the molar value.

Tests used:
[1] = target: T1, transportin (Homo sapiens, UniProt Q92973); test: fluorescent thermal shift assay (Sypro Orange), transportin; format: binding; conditions: 2 μM protein, 50 μM importazole
T1 construct: made in house; host or cells: SG13 cells (E. coli)
T1 sequence (Q92973 1-898): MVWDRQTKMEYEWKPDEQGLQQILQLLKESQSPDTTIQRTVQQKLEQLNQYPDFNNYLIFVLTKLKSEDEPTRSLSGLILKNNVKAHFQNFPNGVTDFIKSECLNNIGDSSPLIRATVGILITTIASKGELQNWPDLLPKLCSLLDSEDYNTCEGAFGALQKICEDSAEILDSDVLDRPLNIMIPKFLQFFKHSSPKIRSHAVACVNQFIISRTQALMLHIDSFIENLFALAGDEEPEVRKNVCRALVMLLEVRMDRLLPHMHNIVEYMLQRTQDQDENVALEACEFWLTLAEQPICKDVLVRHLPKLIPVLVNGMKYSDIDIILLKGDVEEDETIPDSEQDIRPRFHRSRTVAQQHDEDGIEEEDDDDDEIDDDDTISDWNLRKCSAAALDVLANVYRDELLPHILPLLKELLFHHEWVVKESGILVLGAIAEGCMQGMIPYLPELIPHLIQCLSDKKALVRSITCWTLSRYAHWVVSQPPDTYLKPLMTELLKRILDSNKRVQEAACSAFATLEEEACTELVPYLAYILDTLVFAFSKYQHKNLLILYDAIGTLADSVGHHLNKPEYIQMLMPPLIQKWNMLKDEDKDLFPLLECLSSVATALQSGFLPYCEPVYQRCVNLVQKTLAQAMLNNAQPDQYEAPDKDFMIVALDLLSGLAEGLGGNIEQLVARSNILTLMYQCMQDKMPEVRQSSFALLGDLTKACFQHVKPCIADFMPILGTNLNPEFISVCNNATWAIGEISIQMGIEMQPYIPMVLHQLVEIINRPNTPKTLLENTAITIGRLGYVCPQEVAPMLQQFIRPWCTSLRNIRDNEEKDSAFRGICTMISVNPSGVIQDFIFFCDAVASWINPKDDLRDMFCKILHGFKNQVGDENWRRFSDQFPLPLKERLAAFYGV
Procedure: Experiments were performed using Applied Biosystems StepOnePlus™ Real-Time polymerase chain reaction (RT-PCR) System. Protein stocks were diluted in PBS and added 70% v/v to a Microamp® Fast 96-well Reaction Plate and maintained on ice. Compounds (importazole and control compound 3016) were then added at 30% v/v in 3% DMSO. Freshly prepared 100× water based-dilution of Sypro® Orange Protein Gel Stain was then added at 1% v/v to reach a final reaction volume of 20 μl. Samples were mixed by gentle pipetting. After sealing the plates with Microamp™ Optical Adhesive Film, the plate was subjected to a heating cycle composed of a 10 sec prewarming step at 25° C. and a gradient between 25° C. and 95° C. with a 0.3° C. ramp. Data was analyzed using the StepOnePlus™ Software v2.1.

[2] = system: importin-β-mediated nuclear import; test: ionomycin-induced NFAT-GFP nuclear import in HEK 293 cells; format: cell-based, human
From the text: To investigate whether importazole is cell permeable and active in living human cells, a cell line was generated that stably expresses a GFP-tagged version of the transcription factor NFAT (nuclear factor of activated T cells), which shuttles between the nucleus and the cytoplasm in a calcium-regulated manner and is imported by importin-α/β and exported by CRM1. At steady state NFAT is predominantly cytoplasmic. An increase in cytoplasmic calcium induced by the ionophore ionomycin leads to the accumulation of NFAT in the nucleus (FIG. 4A). NFAT import can be reverted upon ionophore withdrawal, (FIG. 5A) providing an inducible system ideal for testing the effects of importazole on importin-β-mediated nuclear import and CRM1-mediated nuclear export, both of which are dependent upon RanGTP.
Cells were pretreated with 40 μM importazole for 1 hour followed by 30 minutes of ionomycin treatment in the continued presence of importazole. […] Thus, it is possible to use importazole in drug-washout experiments to study the Ran/importin-β pathway in cells.
A GFP-NFAT expression plasmid (pKW520) was generated by inserting a BamH I/Hind III-cleaved NFATC1 cDNA fragment into pEGFP-C1 (Clontech) digested with Bgl II and Hind III. The construct was stably transfected into HEK 293 cells and a single clone expressing moderate levels of NFAT-GFP was selected and maintained in Opti-mem media (Gibco) plus 4% fetal bovine serum, 1% penicillin/streptomycin, and 200 μg/ml G418. HeLa cells were grown and maintained according to standard protocols.
For all import and export experiments, HEK 293 cells stably expressing NFAT-GFP were grown on glass coverslips to approximately 50% confluency prior to drug treatment. In all cases, importazole was used at 40 μM and leptomycin B was used at 10 ng/ml. For controls, DMSO was used at a concentration of 0.4%. Ionomycin was added at 1.25 μM. Importazole and leptomycin B treatments were all for 1 hour. In all experiments cells were fixed with 4% formaldehyde prior to fluorescence microscopy. DNA was visualized with 1 μg/ml Hoechst dye.

[3] = system: mitotic importin-β cargo release; test: Rango-3 FRET sensor FLIM in mitotic HeLa cells; format: cell-based, human; conditions: DMSO controls 0.12+/−0.4 ns
From the text: A key feature of importazole, a cell-permeable importin-β/RanGTP inhibitor, is its ability to dissect novel roles of this pathway in dividing human cells, which also provide a system to analyze mitotic gradients of released cargos using FRET probes. If importazole disrupts the interaction of importin-β with RanGTP, then the chromatin-localized FRET gradient of the cargo probe Rango should be reduced, since it undergoes FRET when released from importin-β in HeLa cells. […] Thus, importazole impairs mitotic importin-β cargo release in HeLa cells.
The Rango-3 FRET sensor is an improved version of Rango and was created by replacing Cerulean-EYFP donor-acceptor pair in Rango with EGFP as a donor and non-fluorescent acceptor sREACh which was modified by the introduction of mild dimerization mutations. […] The emission was collected from a custom side port, filtered through a 525 nm bandpass filter (ET525/50 Chroma) and detected by a HPM-100-40 module (Becker & Hickl) containing a hybrid Hamamatsu R10467-40 GaAsP photomultiplier. Two to three days before the experiment, HeLa cells were transfected with a pSG8 plasmid containing the Rango-3 open reading frame (pK135) to induce sensor expression. […] Fluorescence lifetime images were produced and analyzed using SPCI software (Becker & Hickl).

Which results are given for `CC(Nc1nc(N2CCCC2)nc2ccccc12)c1ccccc1` (centres unmarked) [importazole, (1-phenyl-ethyl)-(2-pyrrolidin-1-yl-quinazolin-4-yl)-amine]?
effect on melting curve of transportin [1]: did not significantly affect the melting curves; nuclear accumulation of NFAT-GFP after ionomycin addition ([2]; HEK 293, 40 μM, 1 hour pretreatment then 30 minutes ionomycin): virtually no import of NFAT-GFP; pIC50 ([2]; Homo sapiens, HEK293, HEK 293 cells stably expressing NFAT-GFP, read-out: IC50 for inhibition of NFAT-GFP import): ~4.82; reversibility of NFAT-GFP import inhibition ([2]; washout, 1 hour recovery before ionomycin): reversible upon importazole washout; difference in fluorescence lifetime of Rango-3 donor GFP between chromosomes and distal cytoplasm [3]: 0.07+/−0.03 ns
